US6353015B1, “Method of treating neurodegenerative disorders” (St. Elizabeth's Medical Center, priority 1998, dated 2002)
“Also recorded” adds a separate entry of the source. Like-named read-outs stand apart in the source and are kept apart here. No end group written: not given here.

Key:
AF64A-treated rats [1] = conditions: rat, in vivo; for Correct responses, % Learning test / Correct responses, % Retention test: po
AF64A-treated rats [2] = assay: Morris water maze test; assay type: in vivo, rat; conditions: 0.3 mg/kg daily orally; day 1 and day 5
Method: FIGS. 7A and 7B Average swim latency made by rats, when trained 1 (A) and […] to find a platform in Morris water maze test. […] Results were estimated as time required for rat felt into a water pool to reach a platform;**−[…], ***−p<0.001 vs. AF64A-treated group, where p is the significance level (post hoc ANOVA).
The test was started 2 days after the last injection of tested compounds and was performed daily for the period from 3 to 9 day. Round swimming pool (1,8 m diameter and 0,45 m high) with 22° C. water was placed in the center of the room. The platform was located 1 cm below the surface of the water. Starting points for the swims were at the cardinal compass points (N, S, E, W), which were selected in a semi-random fashion for each rat on each trial.
Each experimental group, i.e., control, AF64A-treated groups and groups for each concentration of the tested compounds, contained 9-11 rats. Results were estimated as time required for rat felt into a water pool to reach a platform (a sum of two trials from different position every day). Data were analyzed as the mean±SEM. (ANOVA followed by post hoc comparisons).

[3] = system: Cerebellar granule cells (CGC); assay: Survival of cerebellar granule cells with amyloid beta-protein (Example 4); assay type: cell-based, rat; design: dose or concentration left out as unconfirmed; conditions: 72 hr
Method: Cerebellar granule cells (CGC) obtained from brains of 8-day rat pups were maintained in culture. The amyloid beta-protein (βAP) and/or NAS derivative (DNAS-18) were added to CGC for a period of 72 hr. Vehicle solution was added to CGC in the control experiments. Survival of CGS was assessed by lactate dehydrogenase method and by visual counting of living neurons.

cerebellar granule cells = assay: βAP 25-35 toxicity assay in mature cerebellar granule cell cultures (Example 5); assay type: cell-based, rat; conditions: for protection of neurons against βAP: compound at 25 μM; for protective effect against the toxicity of βAP 25-35 (in words): mature cultures, 8 DIV; for increase of the amount of living CGC, compound alone: concentration range 25-200 μM
Method: FIG. 8. […] The difference in numbers of living neurons before and after 4 days of treatment were determined. The amount of viable neurons is expressed as mean (%) above viable in preliminary photography of the same place. Experiments were repeated 2-3 times (n=12-18). For graphical presentation, average data from representative experiments were converted to percentages of control groups viability. Results were expressed as a percentage of survival cells to compare with control ±SEM and were analyzed by a statistical test (ANOVA).
Cerebellar granule cells (CGC) were prepared from the postnatal rats (7-8 days old) by the following procedure based on the generally accepted methods (V. Gallo et al., J. Neurosci. 7:2203-2213, 1987). The pieces of cerebellum were digested with 0,25 mg/ml trypsin for 25 min. at 37° C. and incubated for 5 min. in 0.1% soybean trypsin inhibitor. After washing, cells were dissociated by triturating. Following two centrifugation-resuspension steps, the cells were plated at a density of 2.5-[…] cells per ml on polylysine-coated 24-well plates (Corning) and maintained at 37° C. in a humidified incubator with 5% CO2/95% room air. The medium was composed of Eagle's minimal essential medium and fetal calf serum (10%) supplemented with 20 mM potassium chloride, 10 mM glucose, 2 mM glutainine, 50 μg/ml gentamycin sulfate. Cytosine arabinoside (10 μM) was added 24-48 h later to prevent the replication of non-neuronal cells.
The βAP 25-35 (Bachem) was dissolved by sonication in sterilized distilled water at a concentration of 1 mM. […]
Neuronal viability was evaluated by morphometric cell counting using the presence of neurites and smooth, round cell bodies as criteria of survival. The cells were examined under the phase-contrast microscope Axiovert 25C with videocamera and Software miroMedia PCTV VideoCap program for image scanning and photography. Cell survival was quantified by counting the number of viable neurons in premarked microscope fields prior to, and 4 days after the exposure. The difference in numbers of living neurons before and after 4 days of treatment was determined.
For each experiment, we used 4-6 separate wells of a 24-well multiwell plate for control (with 0.05% DMSO)and for each concentration of compound or composition of compound with βAP. Each well equals one observation, (average of 25 cells per microscope field). Experiments are repeated 2-3 times (n=12-18). For graphical presentation, average data from representative experiments were expressed as a percentage of survival cells in comparison with control ±SEM and analyzed by ANOVA and Student t-test.

mouse = assay: Mouse tail suspension test; conditions: in vivo
Text: The combination of cognition-enhancing and antidepressant effect in the one and the same compound might be of additional therapeutic advantage.

Antihypertensive effect = conditions: in vivo
rats = assay: Observation of sedative effect during oral treatment
[4] = in rats; Oxenkrug et al. 1994; cited from earlier work
AF64A-treated rats [5] = assay: Two-way shuttle box avoidance, learning and retention tests (Example 3); assay type: in vivo, rat
[6] = 3 mg/kg p.o. for 12 days after AF64A i.c.v. 3 nmol/ventricle

Compound | cognitive performance of AF64A-treated rats in active avoidance and in water-maze tests (summary) (AF64A-treated rats [1]) | performance in learning paradigm of the active avoidance test (in words) (AF64A-treated rats [1]) | Correct responses, % Learning test (AF64A-treated rats [1]; 0.3 mg/kg) | Correct responses, % Retention test (AF64A-treated rats [1]; 0.3 mg/kg) | Correct responses, % Learning test (AF64A-treated rats [1]; 1 mg/kg) | Correct responses, % Retention test (AF64A-treated rats [1]; 1 mg/kg) | response time (swim latency to platform) (AF64A-treated rats [2]) | protection of neurons against βAP (cerebellar granule cells; 25 μM βAP) | protective effect against the toxicity of βAP 25-35 (in words) (cerebellar granule cells; 4 days) | antidepressant-like activity (decreasing the duration of immobility) (mouse) | antihypertensive effect (Antihypertensive effect) | melting point | sedative effect (rats; 0.3 mg/kg orally daily) | performance in retention paradigm of the active avoidance test (in words) (AF64A-treated rats [1]) | comparative efficacy in preventing βAP toxicity (cerebellar granule cells) | increase of the amount of living CGC, compound alone (cerebellar granule cells) | Correct responses, % Learning test (AF64A-treated rats [1]; 3 mg/kg) | Correct responses, % Retention test (AF64A-treated rats [1]; 3 mg/kg) | further results
CCCC(=O)NCCc1c[nH]c2ccc(OCc3ccccc3)cc12 [CA-18, N-[2-(5-Benzyloxyindol-3-yl)ethyl] butanamide] | improve cognitive performance | completely restored; also recorded: strong tendency (although not reaching the level of statistical significance) towards the improvement | 84.0 ± 5.4 % | 82.7 ± 5.0 % | 50.0 ± 8.8% | 48.1 ± 9.8% | decreased the response time | 93% | exerted a neuroprotective effect | antidepressant-like effects | antihypertensive | 112 to 114 °C | did not induced sedation | – | – | – | – | – | viability of neurons, compound added to βAP [3]: 98±4 % of control; increase of viability of CGC neurons, compound alone ([3]; mean±S.E.): 18±3 % of control; antidepressant-like activity, comparison CA-18 with CA-15 (mouse): more pronounced; sedative effect (rats; 1 mg/kg orally daily): did not induced sedation
CC(=O)NCCc1c[nH]c2ccc(O)cc12 [NAS, N-acetylserotonin] | improve cognitive performance | improved the performance | – | – | 65.4 ± 8.8 % | 56.0 ± 9.2 % | – | – | exerted a neuroprotective effect; also recorded: Protective effect | – | – | – | – | not in retention | strongest | 16-28 % of control | – | – | viable neurons, co-incubation with βAP (cerebellar granule cells; 25 μM compound): 101±5 % of control; conversion of NAS into melatonin [4]: rapidly converted into melatonin
COc1ccc2[nH]cc(CCNC(C)=O)c2c1 [Melatonin, reference compound] | improve cognitive performance | completely restored; also recorded: significant but somewhat less pronounced | 79.0 ± 6.0 % | 83.2 ± 3.2 % | – | – | decreased the response time | 90% | Protective effect | – | – | – | did not induced sedation | completely restored; also recorded: significant but somewhat less pronounced | less effective | 3-10 % of control | 75.4 ± 7.0 % | 72.2 ± 5.8 % | protective effect against the toxicity of βAP 25-35 (in words) (cerebellar granule cells; 4 days, listed as melatonin): exerted a neuroprotective effect; onset of sedative effect (rats; 3 mg/kg orally daily): 3-4 days of treatment; sedative effect (rats; 3 mg/kg orally daily): unspecified sedative effect
CCC(=O)NCCc1c[nH]c2ccc(OCc3ccccc3)cc12 [CA-15, N-[2-(5-Benzyloxyindol-3-yl)ethyl]propanamide] | improve cognitive performance | strong tendency (although not reaching the level of statistical significance) towards the improvement | – | – | – | – | – | – | exerted a neuroprotective effect; also recorded: Protective effect | antidepressant-like effects | antihypertensive | 110 to 112 °C | – | improved the performance | – | – | 61.4 ± 7.4% | 68.0 ± 8.4 % | duration of cognition-enhancing effect in retention test after the learning trials (AF64A-treated rats [5]; 3 mg/kg p.o. for 12 days after AF64A): ≥ 10 days; number of correct responses, learning test (in words) (AF64A-treated rats [5]; [6]): almost completely restored; number of correct responses, retention test (in words) (AF64A-treated rats [5]; [6]): almost completely restored
GSNKGAIIGLM [βAP, reference compound] | – | – | – | – | – | – | – | – | – | – | – | – | – | – | – | – | – | – | viability of CGC neurons with βAP alone ([3]; βAP, mean±S.E.): 56±8 % of control; viability of neurons exposed to βAP alone (cerebellar granule cells; 25 μM βAP, 4 days, mean ±SEM): 58±7 % of control
